The values below come from patent US20060142566A1, “Enantioselective process for the preparation of both enantiomers of 10,11-dihydro-10-hydroxy-5h-dibenz[b,f]azepine-5-carboxamide and new crystal forms thereof” (priority 2002, published 2006).

Holding throughout (assay type): physicochemical
Series [1] is described as follows: solubility in organic and aqueous solutions. The conditions noted are these: compared to modification B.
Series [2] can be described thus: hygroscopicity of the crystal modifications.
Series [3] is described as follows: stability of the crystal forms (bulk stability, thermodynamic stability). The conditions noted are these: solid form, storage.

For the compound `NC(=O)N1c2ccccc2CC(O)c2ccccc21` (single isomer, unassigned) [modification A, (R)- or (S)-10,11-dihydro-10-hydroxy-5H-dibenz[b,f]azepine-5-carboxamide], the solubility result in series [1] is “better soluble in organic and aqueous solutions than modification B”. For the same compound, in series [2], the hygroscopicity entry was “Neither modification A nor modification B are hygroscopic”.

For `NC(=O)N1c2ccccc2CC(O)c2ccccc21` (single isomer, unassigned) [modification B, (R)- or (S)-10,11-dihydro-10-hydroxy-5H-dibenz[b,f]azepine-5-carboxamide], the hygroscopicity entry in series [2] is on record as “Neither modification A nor modification B are hygroscopic”. Also, the “stability of crystal form (thermodynamic)” value in series [3] is recorded as “thermodynamically stable crystalline form”.
